In US20240415819A1, “MACROCYCLIC COMPOUNDS AS PROTEASOME SUBUNIT BETA TYPE-5 INHIBITORS” (Lead Discovery Center GmbH, priority 2021, published 2024):

Tested on: Karpas cells
Assay: Glo assay of Karpas cells (Table 3; ProteasomeGlo plating scheme)
Type: cell-based
Conditions: read-out: Pglo Karpas
From the text: Inhibition is indicated as IC50 [nM] (“-”=not measured). […] • Chymotrypsin-Like Cell-Based Proteasome-GloTM Assay (Promega; […]) • Cell culture 384-well plates (Greiner BioOne; 781080) • Dispensing cassette, MultiDrop Standard tube dispensing cassette (Thermo Scientific; 24072670) • DPBS (Pan BioTech; P04-36500) • Cell culture 384-well plates (Greiner BioOne; 781080) • CPD source plate: diamond-shape plate (Labcyte; LP-0200) • Intermediate plate (Labcyte; P-05525) [table] • a. Remove the plates with cells from the incubator. • b. Take all the plates including the compound plate, intermediate plate and Staurosporine plate to the ECHO. • c. Click on “Open” in the ECHO software and select the protocol “QLI5_25ul_30 uM-Grenier”. • d. Follow the on-screen prompts and instructions once you click “Start” to insert the compound plate, intermediate plate and destination plates. • e. Change the final number of destination plates on the program. • f. Follow the on-screen prompts and instructions once you click “Start” to load the Staurosporine and destination plates. • g. Once all the compounds, DMSO and Staurosporine have been transferred, place the destination plates in a wet tissue box. • h. Place the destination plates back into the incubator and incubate at 37° C., 5% CO2 for 105 minutes. • i. Re-seal all the compound+Stauro diamond and intermediate plates and store in the dark. Chymotrypsin like ProteasomeGlo Assay • 1. Thaw the components of the ProteasomeGlo assay at room temperature including the ProteasomeGlo Buffer, the lyophilized Luciferin Detection Reagent and the Suc-LLVY-Glo Substrate. • 2. Reconstitute the Luciferin Detection Reagent in the amber coloured bottle by adding 50 ml of the ProteasomeGlo Buffer. • 3. Vortex the Suc-LLVY-Glo Substrate briefly to reconstitute the Substrate well. • 4. Spin down the Substrate and add 250 μl of the Substrate to the reconstituted Luciferin Detection Reagent from step 2. • 5. Briefly vortex the amber bottle with the mix to prepare a homogenous solution. • 6. Place the mix prepared in step 5 to sit at room temperature for 60 minutes. • 7. After 60 minutes, pipette 25 μl of the mix from step 5 into all wells with the cells. • 8. Shake the plates for 2-5 minutes to ensure the complete mixing of the ProteasomeGlo reagent with the cells. • 9. Leave the plates in the dark for 10-15 minutes. • 10. Measure the luminescence read-out using the Viktor and the protocol “Luminescence_384Well_0.2 sec”. (Note: The Protoeasome-GloTM Reagent (combined Proteasome-GloTM Substrate, Proteasome-GloTM Buffer and Luciferin Detection Reagent) can be stored at 4° C. or -20° C. for 1 month with minimal loss of activity.)

| Structure (SMILES) | IC50 [nM] |
| --- | --- |
| COc1ccccc1CC(=O)N[C@H]1CC(=O)N2CCCC(CCOc3ccc(C)c(c3)CNC(=O)[C@H](CCc3ccccc3)NC1=O)C2 (stereo partly drawn) [Compound 84, 2-(2-methoxyphenyl)-N-((9S,12S)-5^4-methyl-8,11,14-trioxo-9-phenethyl-4-oxa-7,10-diaza-1(3,1)-piperidina-5(1,3)-benzenacyclotetradecaphane-12-yl)acetamide] | < 100 |
| COc1cccc(CC(=O)N[C@H]2CC(=O)N3CCCC(CCOc4ccc(C)c(c4)CNC(=O)[C@H](CCc4ccccc4)NC2=O)C3)c1 (stereo partly drawn) [Compound 85, 2-(3-methoxyphenyl)-N-((9S,12S)-5^4-methyl-8,11,14-trioxo-9-phenethyl-4-oxa-7,10-diaza-1(3,1)-piperidina-5(1,3)-benzenacyclotetradecaphane-12-yl)acetamide] | < 100 |
| CO[C@@H](C(=O)N[C@H]1CC(=O)N2CCCC(CCOc3ccc(C)c(c3)CNC(=O)[C@H](CCc3ccccc3)NC1=O)C2)c1ccccc1 (stereo partly drawn) [Compound 86, (2R)-2-methoxy-N-((9S,12S)-5^4-methyl-8,11,14-trioxo-9-phenethyl-4-oxa-7,10-diaza-1(3,1)-piperidina-5(1,3)-benzenacyclotetradecaphane-12-yl)-2-phenylacetamide] | < 100 |
| Cc1ccc2cc1CNC(=O)[C@H](CCc1ccccc1)NC(=O)[C@@H](NC(=O)c1cc3cc(C(F)(F)F)ccc3n1C)CC(=O)N1CCCC(CCO2)C1 (stereo partly drawn) [Compound 87, 1-methyl-N-((9S,12S)-5^4-methyl-8,11,14-trioxo-9-phenethyl-4-oxa-7,10-diaza-1(3,1)-piperidina-5(1,3)-benzenacyclotetradecaphane-12-yl)-5-(trifluoromethyl)-1H-indole-2-carboxamide] | < 100 |
| Cc1ccc2cc1CNC(=O)[C@H](CCc1ccccc1)NC(=O)[C@@H](NC(=O)CN1CCCC1)CC(=O)N1CCCC(CCO2)C1 (stereo partly drawn) [Compound 89, N-((9S,12S)-5^4-methyl-8,11,14-trioxo-9-phenethyl-4-oxa-7,10-diaza-1(3,1)-piperidina-5(1,3)-benzenacyclotetradecaphane-12-yl)-2-(pyrrolidin-1-yl)acetamide] | < 100 |

Tested on: B-cells isolated from PBMC's
Assay: Chymotrypsin-like ProteasomeGlo assay in B-cells isolated from PBMCs
Type: cell-based, human
Conditions: Homo sapiens, read-out: Pglo B-Cell [nM]
From the text: PBMC's will be isolated from human blood followed by B-cell isolation from the PBMC's using the Miltenyi Isolation Kit. • 2. This experiment will use the Chymotrypsin-like ProteasomeGlo read-out to generate IC50's following compound treatment. • 3. Dilute all compounds 1:100 for the assay. • 4. […] Repeat the DMSO transfer with lane 12. • 5. Lane 12 should not be seeded with any cells. Only medium! • 6. For all steps, make sure the samples and reagents remain cool! • 7. While dealing with the buffy coats, be careful to not let any exposed skin to be in direct contact with the blood. […] PBMC isolation followed by B-cell isolation using the Miltenyi Kit • Day 2: B-cell plating, ECHO transfer and ProteasomeGlo assay For the initial steps and to make processing the buffy coats easier, separately process the buffy coats. • a. Cut the tube attached to the buffy coats carefully using a clean, sterile and fresh scalpel. • b. Transfer the blood into 2 individual 50 ml falcons. • c. Add an equal volume of DPBS to the blood in the falcons. • d. Add 20 ml of lymphocyte separating medium to two 50 ml falcons. • e. Carefully pour 15-20 ml of the blood+DPBS mix from step c. onto the lymphocyte separating medium from step d. • f. Centrifuge the falcons with the lymphocyte separating medium+blood mix at 800×g for 15 minutes using a swing-out rotor. • g. Following centrifugation, carefully remove the falcons from the centrifuge. • h. The following layers will be observed: • i. Aspirate the plasma layer off carefully without disturbing the different layers. • j. Remove the cell pellet using a pipette into two fresh 50 ml falcons. • k. Fill the falcons with the cells up to 50 ml with DPBS. • l. Centrifuge the falcons at 250×g for 10 minutes using a swing-out rotor (Brake-off). • m. Aspirate the complete DPBS off the cells without disturbing the cell pellet at the bottom of the falcon. • n. Re-suspend the cell pellet in 10 ml of 1×RBC lysis buffer. • o. Incubate the falcons at room temperature in the dark for 10 minutes. • p. After RBC lysis, centrifuge the tubes at 250×g for 10 minutes using a swing-out rotor (brake-off). • (*Note: If the cell pellet is still red or light red, repeat steps n. to p.!) • q. Re-suspend the cell pellet in DPBS up to 50 ml in the falcon. • r. Centrifuge the falcons at 250×g for 10 minutes using a swing-out rotor (Brake-off). • s. Aspirate the DPBS off the cells without disturbing the cell pellet at the bottom of the falcon. • t. Repeat the wash step as described in steps q. to s. 2× times more (total number of washes is 3×). • u. Aspirate the DPBS completely off the cell pellet after the last wash without disturbing the cell pellet. • v. Re-suspend the cell pellet in 20 ml of PBMC cell medium. • w. […] Re-suspend the pellet in volume of the B-cell isolation buffer calculated as follows: • k. Mix well using a 1 ml pipette and incubate the mix on ice for 20 mins. • l. In the meantime, equilibrate one LS Column as follows: • 1. Insert one LS Column into one slot of the separator as depicted in the pictures above. • 2. Place a 50 ml falcon at the bottom of the LS column to collect the wash flow-through. • 3. Add 3 ml of the B-cell isolation buffer into the column. • 4. Allow the buffer to flow-through making sure that the entire volume passes the column and that the column reservoir is empty before the addition of the cells. • 5. Remove the falcon with the flow-through and discard. • m. Place a fresh 50 ml falcon under the LS Column to collect the untouched B-cells isolated from the PBMCs. • n. Apply the entire volume of the cell+antibody+microbeads mix to the LS Column. • o. Collect the flow-through from each application of the mix into the same 50 ml falcon under the LS Column. • p. Once the complete volume of the cell+antibody+microbead mix has been passed through, proceed to washing of the column. • q. Add 3 ml of the B-cell isolation buffer to the LS Column and allow the buffer to flow-through. […]

| Structure (SMILES) | IC50 [nM] |
| --- | --- |
| CCOC(=O)N[C@H]1CC(=O)N2CCCC(CCOc3ccc(C)c(c3)CNC(=O)[C@H](CCc3ccccc3)NC1=O)C2 (stereo partly drawn) [Compound 39, ethyl ((9S,12S)-5^4-methyl-8,11,14-trioxo-9-phenethyl-4-oxa-7,10-diaza-1(3,1)-piperidina-5(1,3)-benzenacyclotetradecaphane-12-yl)carbamate] | < 100 |

Same assay, conditions: Homo sapiens; B-cells isolated from PBMC's; read-out: Pglo B-Cell

| Structure (SMILES) | IC50 [nM] |
| --- | --- |
| Cc1ccc2cc1CNC(=O)[C@H](CCc1ccccc1)NC(=O)[C@@H](NC(=O)CCc1cccc(F)c1)CC(=O)N1CCCC(CCO2)C1 (stereo partly drawn) [Compound 25, 3-(3-fluorophenyl)-N-((9S,12S)-5^4-methyl-8,11,14-trioxo-9-phenethyl-4-oxa-7,10-diaza-1(3,1)-piperidina-5(1,3)-benzenacyclotetradecaphane-12-yl)propanamide] | < 100 |
| Cc1ccc2cc1CNC(=O)[C@H](CCc1ccccc1)NC(=O)[C@@H](NC(=O)c1ccccc1)CC(=O)N1CCCC(CCO2)C1 (stereo partly drawn) [Compound 26, N-((9S,12S)-5^4-methyl-8,11,14-trioxo-9-phenethyl-4-oxa-7,10-diaza-1(3,1)-piperidina-5(1,3)-benzenacyclotetradecaphane-12-yl)benzamide] | < 100 |
| Cc1ccc2cc1CNC(=O)[C@H](CCc1ccccc1)NC(=O)[C@@H](NC(=O)c1ccccn1)CC(=O)N1CCCC(CCO2)C1 (stereo partly drawn) [Compound 40, N-((9S,12S)-5^4-methyl-8,11,14-trioxo-9-phenethyl-4-oxa-7,10-diaza-1(3,1)-piperidina-5(1,3)-benzenacyclotetradecaphane-12-yl)picolinamide] | < 100 |
| Cc1ccc2cc1CNC(=O)C(CCc1cccnc1)NC(=O)CCC(=O)N1CCCC(CCO2)C1 (stereo not shown) [Compound 51, 5^4-methyl-9-(2-(pyridin-3-yl)ethyl)-4-oxa-7,10-diaza-1(3,1)-piperidina-5(1,3)-benzenacyclotetradecaphane-8,11,14-trione] | < 100 |
